Measurements from patent US20260263424A1, “Formulations of 2-Arylbenzimidazole Compounds” (Tranquis Therapeutics, Inc., priority 2022, published 2026).
Where two headings read alike, the source gives them in different places. Each block holds one compound with its values, some of them ahead of it.

What was measured:
[1] = cited from earlier work
[2] = WO 2021/262617; cited from earlier work
[3] = system: Ppargc1α (PGC-1α) expression; conditions: Zhang et al., Diabetes 62:1297-1307 (2013); cited from earlier work
[4] = Single ascending dose (SAD) phase 1 trial, plasma pharmacokinetics of MC, SDD and HME formulations; conditions: for Frel Cmax/D (relative bioavailability, geometric mean): dose normalized comparison to Regimen C: 540 mg compound 1 MC formulation; for AUC(0-last) (geometric mean): fasted, plasma
[5] = system: murine models of neurodegenerative diseases, including Parkinson's disease, Alzheimer's disease, and amyotrophic lateral sclerosis (ALS); conditions: administered orally at 25 mg/kg; cited from earlier work
[6] = Multiple dose phase 1 trial, plasma pharmacokinetics of compound 1 SDD formulation QD for 7 days; conditions: for AR AUC (accumulation ratio based on AUC(0-tau)) / AR Cmax (accumulation ratio): Day 7, plasma
[7] = human, in vivo
[8] = male, human, in vivo, 120 mg, 7 days
[9] = Regimen I: 120 mg compound 1 SDD formulation QD, fasted
[10] = Regimen J: 90 mg compound 1 SDD formulation QD, fed
[11] = Regimen K: 300 mg compound 1 SDD formulation QD, fed

SMILES: CC(C)(C)c1ccc(-c2nc3ccccc3[nH]2)cc1 [Compound 1, 2-(4-tert-butylphenyl)-1H-benzimidazole]
solubility under aqueous conditions [1]: highly insoluble | treating systemic immune activation [2]: effective | effect on Ppargc1α (PGC-1α) expression [3]: activator | dose proportionality of Cmax, AUC(0-24) and AUC(0-inf) ([4]; MC formulation, single doses of 60 and 180 mg compound 1): slightly sub-proportionally | Frel Cmax/D (relative bioavailability, geometric mean) ([4]; Regimen D 180 mg compound 1 SDD formulation): 218% | AUC(0-last) (geometric mean) ([4]; Regimen D: single oral 180 mg compound 1 SDD formulation): 611 ng·h/mL | Frel Cmax (relative bioavailability, geometric mean) ([4]; Regimen E 180 mg compound 1 HME formulation, comparison to Regimen D 180 mg compound 1 SDD formulation): 56.6% | Frel Cmax/D (relative bioavailability, geometric mean) ([4]; Regimen E 180 mg compound 1 HME formulation): 124% | AUC(0-last) (geometric mean) ([4]; Regimen E: single oral 180 mg compound 1 HME formulation): 360 ng·h/mL | disease severity [5]: reduce disease severity | myeloid-mediated inflammation [5]: suppress myeloid-mediated inflammation | AR AUC (accumulation ratio based on AUC(0-tau)) [6, 9]: 1.58 | AR Cmax (accumulation ratio) [6, 9]: 1.59 | AR AUC (accumulation ratio based on AUC(0-tau)) [6, 10]: 1.24 | AR Cmax (accumulation ratio) [6, 10]: 1.03 | maximum individual AUC(0-tau) as share of the AUC(0-tau) exposure limit ([6]; Regimen J: 90 mg compound 1 SDD formulation, fed, Day 1): 10.9% | AR AUC (accumulation ratio based on AUC(0-tau)) [6, 11]: 1.66 | AR Cmax (accumulation ratio) [6, 11]: 1.74

dose proportionality of Cmax, AUC(0-24) and AUC(0-inf) ([7]; 180 mg): proportionally | Frel Cmax (relative bioavailability, geometric mean) ([7]; male, 180 mg): 64.9% | T1/2 (geometric mean) ([7]; male, po, 180 mg): 9.17 h | Tmax (median) ([7]; male, po, 180 mg): 2 h | Cmax (geometric mean) ([7]; male, po, 270 mg): 621 ng/mL | Tmax (median) ([7]; male, po, 270 mg): 2 h | AR AUC (accumulation ratio based on AUC(0-tau)) [8]: 1.46
SMILES: CC(C)(C)c1ccc(-c2nc3cc(O)ccc3[nH]2)cc1 [Compound 2, 2-(4-(tert-butyl)phenyl)-1H-benzo[d]imidazol-5-ol]
